# Results published in US12239645B2, “Targeted dosing for the treatment of complement mediated disorders” (Achillion Pharmaceuticals, Inc., priority 2018, dated 2025).
# Several values for one entry are separate records, joined by “and”; a condition that tells them apart may be missing. Equal values may be shown once.
# Legend:
# [1] = tested on: Bb fragment of complement Factor B; test: SAD study: Bb plasma concentrations; assay type: in vivo, human; conditions: for mean Bb plasma concentration: eight hours post-dosing
# Protocol: […] were dosed and evaluated in 4 dose groups with ten subjects receiving placebo (Table 1). The first dose group had 6 active and 6 placebo subjects; subsequent groups had 6 active and 2 placebo subjects each. Each group was followed for 28 days after dosing. All subjects were monitored for safety through the last scheduled visit at Day 28. Blood and urine samples were collected at predefined time points from Days 1 to 4 to determine plasma and urine concentrations of Compound 1 and from Days 1 to 7 to determine complement related activities. Results of serum AP activity measured by AP Wieslab assay as well as plasma Bb, factor D level and several other PD biomarkers were determined.
# A graphical display of mean plasma Bb concentrations through Day 7 (reported in days) and within 24 hours of dosing (by randomized treatment group and overall) can be found in FIG. 9B and FIG. 9A, respectively. All Compound 1 dose groups evaluated had significant reductions in Bb plasma concentrations after single dose administration relative to baseline and the placebo-treated group as illustrated in FIG. 9A and FIG. 9B. Although the number of subjects evaluated in individual dose groups was relatively small (n=6), the magnitude of changes observed appeared to be dose-dependent. At baseline, the 40 mg, 80 mg, and 120 mg dose groups had Bb plasma concentrations within the normal reference range for the assay (i.e., 0.49 to 1.42 μg/mL); 40 mg, 80 mg, and 120 mg dose groups had mean (±SD) baseline values of 0.80 (±0.195) μg/mL, 0.78 (±0.128) μg/mL, and 0.70 (±0.095) μg/mL, respectively. Bb plasma concentrations reached a nadir 6 hours (in the 40 mg dose group) to 8 hours (in the 80 mg and 120 mg dose groups) post-dosing. Six hours post-dosing, mean (±SD) Bb plasma concentration in the 40 mg dose group had decreased to 0.51 (±0.091) μg/mL. Eight hours post-dosing, mean Bb plasma concentration had decreased to 0.48 (±0.056) μg/mL for the 80 mg dose group and 0.40 (±0.029) μg/mL for the 120 mg dose group. For the 80 mg and 120 mg dose groups, mean Bb plasma concentrations increased to above the LLN for the assay by 10 hours post-dosing (for the 80 mg dose group) and 24 hours (Day 2) (for the 120 mg dose group) post-dosing, respectively, with return to baseline values by 48 hours (Day 3) post-dosing. No subjects had treatment-emergent abnormalities in Bb plasma concentrations during the study.
# [2] = tested on: complement alternative pathway (AP) activity; test: SAD study: ex vivo serum AP hemolysis assay and PK-PD analysis; assay type: in vivo, human; conditions: for time approximately 90% or greater inhibition maintained after dosing: AP hemolysis
# Protocol: For human serum preparation, venous blood was collected by standard clinical procedures into a Gold Top, SST vacutainer (BD Vacutainer). After clotting at room temperature for 30 minutes or longer, the tube was centrifuged at ˜1,300×g at 4° C. for 15 minutes to separate the serum from the clot. Serum was then aliquotted into pre-chilled cryovials (50-200 μl/vial) for storage at ˜80° C. Each vial was thawed only once and used for each complement related assay, the remaining sample was discarded without further usage. For preparation of plasma, venous blood was collected into a Lavender Top, K2EDTA vacutainer and gently inverted several times to allow for complete mixing of the blood sample with the anticoagulant. The tube was placed in an ice-bath for 30 minutes and then centrifuged for 15 minutes at ˜1300×g at 4° C. to separate the plasma from the blood cells. Plasma was divided into aliquots in pre-chilled cryogenic storage tubes and stored at a ˜80° C. freezer within one hour of having collected the blood sample. For delivery, tubes containing either serum or plasma were shipped in the presence of dry ice without additional freeze-thaw cycle.
# Ex vivo serum AP hemolysis assays were conducted in 96-well microtiter plates divided into two parts, one for hemolysis and the other for serum background color subtraction. Briefly, a suspension of rabbit red blood cells (RBCs) was centrifuged at 800×g at 4° C. for 3 minutes and the supernatant was removed to get rid of the RBC debris. The RBC cell pellet was re-suspended gently with pre-chilled gelatin veronal buffer (GVB0) containing 10 mM MgEGTA to a density of 5×10^8 cells/mL. Other controls including buffer, spontaneous rabbit RBC lysis, 100% RBC lysis (in water), and normal serum control were set up alongside the test samples as well. Serum was placed in a 37° C. water-bath until mostly thawed and immediately transferred to ice bath. 20% serum was prepared with GVB0-MgEGTA buffer and kept at ice bath before testing. Reactions were carried out in a 96 well plate by mixing 50 μl of 20% serum with equal volume of GVB0-MgEGTA buffer and then quickly adding 20 μl of RBC suspension. The plate was shaken on a microtiter plate shaker for 5 seconds and then incubated at 37° C. for 30 minutes. Halfway during the incubation period, the plate was shaken for another 5 seconds as described above. At the end of the incubation, the plate was centrifuged at 800×g at 4° C. for 3 minutes to pellet the un-lysed rabbit RBCs. 80 μl of supernatant was removed carefully from all wells and transferred to a clear flat-bottom microtiter plate for the measurement of optical absorbance at 405 nm (A405) in a Molecular Devices Spectramax Plus plate reader. AP hemolysis in each well was calculated relative to the activity of the NHS reference sample formulas as follows: Hemolysis (%)=((Hm−Bk)−(Sp−Bf))/((NH−BkNH)−(Sp−Bf))×100%
# where Hm=A405 in the hemolysis well, Bk=A405 in the corresponding background well, Sp=mean A405 in the spontaneous hemolysis wells, Bf=mean A405 in the buffer alone wells, NH=mean A405 in the reference NHS wells, and BkNH=mean A405 in the corresponding background wells.
# The PK-PD relationship was evaluated using time-matched plasma Compound 1 concentrations and serum AP inhibition values by non-linear regression with GraphPad Prism (La Jolla, CA) using the following two models: • 1. […] Pharmacodynamic and Pharmacokinetic Results AP Activity Measured with AP Hemolysis […]
structure (smiles),measurement,setting,value
"CC(=O)c1nn(CC(=O)N2[C@H](C(=O)Nc3nc(Br)ccc3C)C[C@@]3(C)C[C@@H]23)c2ccc(-c3cnc(C)nc3)cc12 [Compound 1, (1R,3S,5R)-2-(2-(3-acetyl-5-(2-methylpyrimidin-5-yl)-1H-indazol-1-yl)acetyl)-N-(6-bromo-3-methylpyridin-2-yl)-5-methyl-2-azabicyclo[3.1.0]hexane-3-carboxamide]",time of Bb plasma concentration nadir post-dosing,[1]; 40 mg dose group,6 h
same,mean (±SD) Bb plasma concentration,"[1]; 40 mg single dose, six hours post-dosing",0.51 (±0.091) μg/mL
same,time of Bb plasma concentration nadir post-dosing,[1]; 80 mg and 120 mg dose groups,8 h
same,time for mean Bb plasma concentration to increase above the LLN,[1]; 80 mg dose group,≤ 10 h
same,mean Bb plasma concentration,[1]; 80 mg single dose,0.48 (±0.056) μg/mL
same,time for mean Bb plasma concentration to increase above the LLN,[1]; 120 mg dose group,≤ 24 h
same,mean Bb plasma concentration,[1]; 120 mg single dose,0.40 (±0.029) μg/mL
same,time of Bb return to baseline values post-dosing,[1]; SAD dose groups,≤ 48 h
same,time approximately 90% or greater inhibition maintained after dosing,"[2]; Group 1, 40 mg single dose",at least 4 hours
same,time approximately 90% or greater inhibition maintained after dosing,"[2]; Groups 2 and 3, 80 and 120 mg single dose",at least 8 hours
same,EC50,"[2]; Homo sapiens, simple Emax model, all SAD dose cohorts, read-out: EC50 (plasma concentration vs serum AP inhibition)",0.0111 µg/mL
same,EC50 (plasma concentration vs serum AP inhibition),"[2]; simple Emax model, all SAD dose cohorts",~0.01 µg/mL and 0.011 µg/mL
same,inhibition of AP activity after dosing,"[2]; single dose 40, 80 or 120 mg, all groups",complete inhibition
